Experimental findings from patent US20240132449A1, “HETEROCYCLIC COMPOUNDS AND METHODS OF USE THEREOF” (1cBio, Inc., priority 2022, published 2024) are described below.

In general, EC50 refers to the concentration at which the effect is half-maximal. The low end stands for higher potency in that assay, the high end for lower potency in that assay. What is called IC50 is the midpoint of a concentration-inhibition curve. Low readings indicate greater potency, high ones weaker potency.

Bounds are passed on as bounds.

Test [1] has as its system DLD-1 wild-type colorectal adenocarcinoma cells. Kind of test: Cell viability assay (Cell Titer-Glo), DLD-1 wild-type. Particulars: Homo sapiens, DLD-1, 168 h; 10 μM, 7 days incubation; read-out: DLD-1 wild-type % inh at 10 μM. It is filed as cell-based. The gist of the method: (§1)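 Isogenic DLD-1 wild-type (50 cells/well) and BRCA2(−/−) (200 cells/well) lines treated after overnight attachment, 7 days at 37 °C, 5% CO2. Ten-point dilutions (e.g. 1.5 nM–30 μM) or single dose; CellTiter-Glo luminescence; IC50 from four-parameter fit, plus % inhibition at 10 μM.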
In general terms: Cellular ATP, detected with luciferase, serves as a proxy for viable cell number.

The target of test [2] is T1, PARP1 (Homo sapiens, UniProt P09874). The experiment in a line: PARP1 biochemical trapping assay (BPS PARPtrap). On the procedure: Compounds of the present disclosure were tested in a PARP1 biochemical trapping assay at BPS Bioscience (San Diego, CA). PARP1 is known to bind damaged DNA through its DNA-binding domains. Binding to DNA activates PARP1, and in the presence of NAD+, PARP1 ribosylates itself (auto-ribosylation), leading to PARP1 dissociation from the DNA due to the accumulated negative charge of the ribosyl polymer. In the presence of some inhibitors, however, PARP remains bound to the DNA, a phenomenon termed trapping.
The BPS PARPtrap assay kit for PARP1 (BPS Catalog #80584) was used. A series of dilutions of the compounds were prepared with 10% DMSO in water. The final concentration of DMSO was 1% in all reactions. The enzymatic reactions were conducted in duplicates at room temperature in a 96-well plate. The 45 μl reaction mixtures in PARPtrap buffer 1 containing PARP1 fluorescent labelled oligonucleotide duplex, PARP enzyme and the test compound were incubated at room temperature for 10 min. After pre-incubation, the enzymatic reaction was initiated by adding 5 μl of 10×NAD+ solution. The reaction was incubated for 45-60 min at room temperature.
Fluorescence polarization was measured at an excitation of 470 nm and an emission of 518 nm using a Tecan Infinite M1000 microplate reader. The blank value was subtracted from all other values. Fluorescence polarization was analyzed by Tecan Magellan 6 software and wells containing DNA were used as references. The fluorescence polarization data were then evaluated using GraphPad Prism software. The fluorescence polarization in absence of the compound in each data set was defined as 0% activity (FPo), while the fluorescence polarization in the absence of both NAD+ and the compound was defined as 100% activity (FPt). The percent activity in the presence of the compound was calculated according to the equation % activity=[FP−FPo]/[(FPt−FPo)]×100, where FP=the fluorescence polarization in the presence of the compound.
The values of % activity versus a series of compound concentrations were then plotted using non-linear regression analysis of a sigmoidal dose-response curve generated with the equation Y=B+(T−B)/1+10^((LogEC50−X)×Hill Slope), where Y=percent activity, B=minimum percent activity, T=maximum percent activity, X=logarithm of compound and Hill Slope=slope factor or Hill coefficient. The EC50 value was determined by the concentration causing a half-maximal percent activity. EC50 values are shown in Table C and are presented in ranges, in which “+++”<300 nM, 300 nM≤“++”<3000 nM, and “+”≥3000 nM.

A further test has as its target recombinant human PARP2 (Homo sapiens, UniProt Q9UGN5). The experiment in a line: PARP2 fluorescence polarization binding assay. Conditions: read-out: PARP2 % inh at 10 μM. The procedure, abridged: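 GST-tagged PARP2, added at 40 nM in 50 mM Tris pH 8.0, 0.001% Triton X-100, 10 mM MgCl2, 150 mM NaCl, was preincubated 30 min at RT with compound (10-point 3-fold series or single concentration). PARPi-FL probe was then added at 6 nM for 4 h. IC50 was fitted from fluorescence polarization (ex 480/em 535 nm) with floating top and bottom.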
(Polarisation of emitted light reports the rotation of a fluorescent probe.)

In test [3] the target is T1, PARP1. Kind of test: PARP1 fluorescence polarization binding assay. Conditions: binding IC50, GST-tagged PARP1 20 nM, PARPi-FL 3 nM. The procedure, abridged:
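Competitive FP binding: 20 nM GST-tagged PARP1 preincubated with compound 30 min at RT, then 3 nM PARPi-FL probe for 4 h at RT; buffer 50 mM Tris pH 8.0, 10 mM MgCl2, 150 mM NaCl. 10-point 3-fold dilutions; % inhibition from mP versus controls, IC50 by four-parameter fit, reported in ranges.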

In test [4] the test system is DLD-1 BRCA2(−/−) colorectal adenocarcinoma cells. The experiment in a line: Cell viability assay (Cell Titer-Glo), DLD-1 BRCA2(−/−). It is filed as cell-based. Conditions: Homo sapiens, DLD-1, 168 h; 7 days incubation, 200 cells/well. The gist of the method: as §1

T1 sequence (P09874 whole entry, the tested form may be a part): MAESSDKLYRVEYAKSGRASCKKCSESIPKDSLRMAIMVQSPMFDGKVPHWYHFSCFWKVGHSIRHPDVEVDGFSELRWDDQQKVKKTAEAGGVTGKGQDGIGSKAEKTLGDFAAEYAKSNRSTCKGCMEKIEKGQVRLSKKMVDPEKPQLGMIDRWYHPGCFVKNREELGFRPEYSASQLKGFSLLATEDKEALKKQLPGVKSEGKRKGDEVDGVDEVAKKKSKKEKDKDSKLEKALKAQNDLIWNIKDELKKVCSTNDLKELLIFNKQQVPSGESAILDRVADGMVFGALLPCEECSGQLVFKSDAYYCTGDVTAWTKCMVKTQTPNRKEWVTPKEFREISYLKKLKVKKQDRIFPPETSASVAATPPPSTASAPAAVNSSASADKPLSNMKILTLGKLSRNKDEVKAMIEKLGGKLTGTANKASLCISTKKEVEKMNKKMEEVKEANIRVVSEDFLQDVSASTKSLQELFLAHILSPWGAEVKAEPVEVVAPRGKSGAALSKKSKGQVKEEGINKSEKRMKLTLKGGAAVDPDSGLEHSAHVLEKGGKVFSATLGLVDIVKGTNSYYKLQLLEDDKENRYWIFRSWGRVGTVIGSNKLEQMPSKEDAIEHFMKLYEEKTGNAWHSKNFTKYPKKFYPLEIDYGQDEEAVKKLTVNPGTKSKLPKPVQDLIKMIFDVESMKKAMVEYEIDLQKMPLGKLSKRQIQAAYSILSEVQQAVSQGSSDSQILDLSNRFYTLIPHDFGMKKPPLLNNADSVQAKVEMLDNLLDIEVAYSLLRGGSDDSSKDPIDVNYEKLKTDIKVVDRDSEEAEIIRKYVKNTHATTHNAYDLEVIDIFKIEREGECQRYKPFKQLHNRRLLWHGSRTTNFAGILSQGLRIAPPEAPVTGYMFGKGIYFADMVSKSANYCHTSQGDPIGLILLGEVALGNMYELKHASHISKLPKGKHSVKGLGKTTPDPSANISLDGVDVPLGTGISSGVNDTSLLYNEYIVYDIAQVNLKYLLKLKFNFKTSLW
Sequence of recombinant human PARP2 (Q9UGN5 whole entry): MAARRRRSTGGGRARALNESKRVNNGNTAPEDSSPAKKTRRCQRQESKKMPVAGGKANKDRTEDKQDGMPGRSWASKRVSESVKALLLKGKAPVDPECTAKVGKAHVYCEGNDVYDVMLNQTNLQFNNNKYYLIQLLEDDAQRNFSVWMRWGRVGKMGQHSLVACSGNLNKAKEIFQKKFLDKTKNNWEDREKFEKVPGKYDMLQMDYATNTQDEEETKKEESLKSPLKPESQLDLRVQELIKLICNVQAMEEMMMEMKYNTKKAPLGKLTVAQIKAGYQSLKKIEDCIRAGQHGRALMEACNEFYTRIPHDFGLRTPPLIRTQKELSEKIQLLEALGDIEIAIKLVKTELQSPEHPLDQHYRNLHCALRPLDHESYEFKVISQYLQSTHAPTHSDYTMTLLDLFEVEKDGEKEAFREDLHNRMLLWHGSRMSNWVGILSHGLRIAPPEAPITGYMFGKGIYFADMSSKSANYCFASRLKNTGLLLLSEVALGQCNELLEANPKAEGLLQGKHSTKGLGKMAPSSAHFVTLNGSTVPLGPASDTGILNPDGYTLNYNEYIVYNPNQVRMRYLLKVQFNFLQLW

With `CCn1c(=O)[nH]c2cc(CN3CCN(c4ccc(C(=O)NC(CO)CO)nc4C)CC3)sc2c1=O` [Compound 527], the inhibition at 10 µM in test [1] is less than 33%; on recombinant human PARP2, 33 to 67%. The same compound returned a half-maximal effective concentration (EC50) at PARP1 [2] greater than 3000 nM. Further, the values for the IC50 (at PARP1 [3]; in test [4]) were less than 100 nM and greater than 3000 nM, respectively.
